Drawing on BindingDB's records for doi:10.1021/jm00044a016 (University of Paris, 1994), this text covers Ki for five molecules.

This assay addresses Glutamyl aminopeptidase (Oryctolagus cuniculus). Description: Inhibition of aminopeptidase A (APA).
The term Ki denotes a measure of affinity in units of concentration, obtained from inhibition or displacement. Low values mean tighter binding, high ones weaker binding. With `NC(CS)CC(C(=O)O)C(=O)O` (stereo not given) [2-(2-Amino-3-mercapto-propyl)-malonic acid], the affinity corresponds to a Ki of 3500 nM. In other words, the single-digit micromolar range.
`NC(CS)CCC(C(=O)O)C(=O)O` (stereo not given) [2-(3-Amino-4-mercapto-butyl)-malonic acid] showed a Ki of 280 nM.
As for `NC(CS)CCCCC(=O)O` (stereo not given) [6-Amino-7-mercapto-heptanoic acid], affinity was put at a Ki of 1600 nM.
As to `NC(CS)CCCP(=O)(O)O` (stereo not given) [(4-Amino-5-mercapto-pentyl)-phosphonic acid], the affinity corresponds to a Ki of 510 nM.
The figure for `N[C@H](CS)CCCS(=O)(=O)O` [Sodium; (S)-4-amino-5-mercapto-pentane-1-sulfonate] is 370 nM.
